According to the NIST ThermoML archive (doi:10.1021/je400512u):

Assay: xn = mol fraction of the nth substance listed
Settings: 101 kPa, Liquid; for viscosity: Concentric cylinders viscometry; for speed of sound: Pulse-echo method; for mass density: Vibrating tube method

CCCCCCCO [heptan-1-ol] + C1COCCO1
Settings | mass density, 298.15 K [kg/m3] | mass density, 303.15 K [kg/m3] | mass density, 308.15 K [kg/m3] | speed of sound, 298.15 K [m/s] | speed of sound, 303.15 K [m/s] | speed of sound, 308.15 K [m/s] | viscosity, 298.15 K [mPa·s] | viscosity, 303.15 K [mPa·s] | viscosity, 308.15 K [mPa·s]
x1 = 0.0505 | 1008.57 | 1003.12 | 997.647 | 1339.3 | 1317.9 | 1296.7 | 1.217 | 1.12 | 1.034
x1 = 0.1 | 991.286 | 985.996 | 980.695 | 1333.2 | 1312.3 | 1291.6 | 1.247 | 1.145 | 1.055
x1 = 0.1501 | 975.785 | 970.647 | 965.496 | 1328.6 | 1308.1 | 1287.8 | 1.296 | 1.188 | 1.093
x1 = 0.2 | 961.05 | 956.055 | 951.048 | 1324.7 | 1304.6 | 1284.7 | 1.344 | 1.229 | 1.129
x1 = 0.25 | 947.06 | 942.208 | 937.338 | 1321.5 | 1301.8 | 1282.2 | 1.415 | 1.291 | 1.183
x1 = 0.2997 | 934.312 | 929.584 | 924.84 | 1319 | 1299.7 | 1280.4 | 1.5 | 1.365 | 1.247
x1 = 0.3502 | 922.561 | 917.951 | 913.324 | 1317.4 | 1298.4 | 1279.4 | 1.605 | 1.455 | 1.324
x1 = 0.4001 | 911.608 | 907.108 | 902.591 | 1316 | 1297.2 | 1278.5 | 1.713 | 1.547 | 1.403
x1 = 0.4498 | 901.275 | 896.876 | 892.463 | 1315.2 | 1296.6 | 1278.2 | 1.834 | 1.653 | 1.497
x1 = 0.4998 | 891.612 | 887.314 | 882.999 | 1314.9 | 1296.6 | 1278.4 | 2 | 1.794 | 1.617
x1 = 0.55 | 882.643 | 878.474 | 874.248 | 1314.8 | 1296.7 | 1278.6 | 2.169 | 1.937 | 1.739
x1 = 0.6004 | 874.251 | 870.13 | 865.991 | 1315.2 | 1297.3 | 1279.4 | 2.365 | 2.104 | 1.881
x1 = 0.6501 | 866.177 | 862.139 | 858.083 | 1316 | 1298.3 | 1280.5 | 2.593 | 2.296 | 2.044
x1 = 0.7002 | 858.585 | 854.631 | 850.647 | 1316.9 | 1299.3 | 1281.7 | 2.861 | 2.521 | 2.234
x1 = 0.7493 | 851.217 | 847.338 | 843.436 | 1318.2 | 1300.7 | 1283.3 | 3.154 | 2.766 | 2.44
x1 = 0.7999 | 844.345 | 840.45 | 836.632 | 1318.9 | 1301.7 | 1284.4 | 3.524 | 3.073 | 2.696
x1 = 0.85 | 837.74 | 834.009 | 830.254 | 1321.5 | 1304.3 | 1287.2 | 3.943 | 3.419 | 2.985
x1 = 0.8998 | 831.478 | 827.706 | 824.01 | 1323.2 | 1306.1 | 1289 | 4.464 | 3.847 | 3.338
x1 = 0.9498 | 825.31 | 821.704 | 818.076 | 1325.4 | 1308.3 | 1291.4 | 5.075 | 4.346 | 3.747
x1 = 1 | 819.73 | 816.183 | 812.61 | 1328.3 | 1311.3 | 1294.5 | 5.869 | 4.989 | 4.27
